Source: US6906072B1, “Piperazine compound and pharmaceutical composition containing the compound” (Eisai Co., Ltd., priority 2000, dated 2005)
Where a name gives a salt, the structure may show the parent alone.

Tests used:
[1] = test system: potential dependent calcium channel; test: Measurement of potential dependent calcium channel activity using fluorescent dye (fura2) in cerebral cortex synaptosome stimulated with KCl; format: cell-based, rat
[2] = test system: T1, potential dependent calcium channel; conditions: 1 μM; cited from earlier work
T1 construct: other: 1 μM

[3] = test system: formalin test using mouse; test: Analgesic effect in formalin test using mouse; format: in vivo; conditions: licking time for 5 minutes
Protocol: Analgesic Effect (I) in Formalin Test Using Mouse
Therefore, the analgesic effect obtained in the case where the intravenous administration of the present compound was carried out was studied in the formalin test (3)) using a mouse.
Ddy mice (male, 4 to 7 weeks age) purchased from Japan SLC Co, were used for experiment. Preliminary feeding of 4 days or more was carried out for mice (breeding condition: a room temperature 23±1° C., air humidity 55±5%, lighting cycle of every 12 hours). The mice were accommodated by a group of approximately 20 in a cage made of polycarbonate for 20 mice in which floor cloth (White Flake, Charles River Co., Ltd., Tokyo) was spread, and were bred. At the morning of the day tested, they were moved to a laboratory. They were freely fed MF (Oriental Yeast Co., Tokyo) as a feed. Further, they drunk city water freely. […]
10 mg/kg of the present compound was intravenously administered via tail vein, 30 mg/kg of morphine was orally administered and 10 mg/kg of indomethacin was orally administered. […] Just after the administration of formalin, the licking time of an action in which a mouse licked his left hind leg was measured for 5 minutes, and it was made as an index of pain. […] Setting the licking time of the control as 100%, the suppression rate (%) of the present compound was calculated by the following calculation formula. […]

[4] = test system: rat local cerebral ischemia model; conditions: literature reports, result in words; cited from earlier work
[5] = test system: rat middle cerebral artery emphraxis model; test: Shrinking effect of infarction nidus in rat middle cerebral artery emphraxis model; format: in vivo; conditions: for volume of the infarction nidus of cerebral cortex: average value±standard error, after 24 hours; for reduction of the volume of the infarction nidus of cerebral cortex: from 30 minutes after emphraxis, vs control group, measured after 24 hours
Source text: Shrinking Effect of Infarction nidus in rat Middle Cerebral Artery Emphraxis Model (I)
A calcium ion in the cell plays an important role in the expression of various cell functions. But when the calcium ion concentration in the cell rises excessively, cell affection is induced (refer to literatures 1) and 2), hereinafter, the same as this.). For example, neural cell affection induced by excitatory amino-acid occurring in the case of cerebral ischemia provokes excessive rise of the calcium ion concentration in the cell (3) and 4)). The maintenance mechanism of membrane potential fails by excitatory amino-acid which rose in the case of local cerebral ischemia (3)), the depolarization of membrane is induced (5)), and the influx of the calcium ion into the cell through the potential dependent calcium channel is increased (6) and 7)). […] The potential dependent calcium channels existing in the neural cell are classified in 6 kinds of sub-types based on the electro-physiological and pharmacological investigation (T, L, N, P, Q and R types) (9)). Among these, N, P and Q types play an important role in the liberation of glutamic acid from rat cerebral cortex synaptosome (10) and 11)).
The compound represented by the above formula (I) according to the present invention was dissolved in a physiological saline, and appropriately prepared so as to be in doses of 1.5, 5 and 15 mg/kg/h. The concentration of the specimen was calculated based on the average body weight of an animal. Further, the average body weight was calculated by measuring the body weight of all animals which are intended to be used for experiment. For example, in the case of 5 mg/kg/h, it was calculated as: concentration of specimen=5 mg×average body weight (kg)/administration volume (0.616 ml) per hour. • (2) Manufacture of nylon embolus
The embolus made from nylon stitch (Ethicon, Inc., Somerville, N.J., USA) of 4-0 monofilament was used for emphraxis of middle cerebral artery. As the nylon embolus, that prepared by previously rounding its tip with flame, fragmenting it in a length of 25 mm, and marking at a position of 17 mm from the tip with an oily felt pen was used. • (3) Implantation of catheter for intravenous administration
The implantation of catheter for intravenous administration (Atom Vein Catheter 3Fr, manufactured by ATOM MEDICAL Co., Ltd., Tokyo) was carried out under 70% laughing gas-2% halothane anaesthesia. Catheter which was filled up with a physiological saline solution was inserted from the femoral vein of left foot. • (4) Emphraxis of middle cerebral artery
The emphraxis of middle cerebral artery was carried out in accordance with the method of Longa et al (12)). The operation was carried out under 70% laughing gas-2% halothane anaesthesia just after implanting the catheter. A rat was laid in facing upward under the stereoscopic microscope for operation, the neck was cut open, and the portion where the whole carotid arteries of the right side are diverged to the external carotid artery and the internal carotid artery was confirmed. The external carotid artery was cut off at the periphery side, and the nylon embolus was inserted from the terminal of the external carotid artery which was cut off into the internal carotid artery. The embolus was inserted up to the position where the position of 17 mm from the tip of the embolus is duplicated with a branch point of the external carotid artery and the internal carotid artery, and was fixed.
The rat was caught and lifted with the cauda after 30 minutes from the emphraxis of middle cerebral artery, an indivisual which expresses clearly the one side paralysis of a fore-leg (the paralysis of a fore-leg of the opponent side which loaded infarct) was provided for experiment as an example in which middle cerebral artery was occluded and was able to make an ischemia condition. • (6) Administration of medium and specimen […]

formalin test = conditions: administration in spinal cord, literature reports, result in words; cited from earlier work

COc1ccc(CCN(C)CCCC(C#N)(c2ccc(OC)c(OC)c2)C(C)C)cc1OC (centres unmarked) [Control, verapamil hydrochloride]
IC50 [1]: > 16 µM

w-Agatoxin-IVA
inhibition against the Ca2+ influx [2]: 64%

CN1CC[C@]23c4c5ccc(O)c4O[C@H]2[C@@H](O)C=C[C@H]3[C@H]1C5 [morphine, reference compound]
suppression rate of licking time ([3]; 30 mg/kg orally, formalin 30 minutes after administration): 54%

n-conotoxin GVIA
inhibition against the Ca2+ influx [2]: 18%

CC(C)N(CCN1CCN(CCCC(C#N)(c2cccs2)C(C)C)CC1)c1ccccn1 (centres unmarked) [Example 189, 1-[4-cyano-4-(2-thienyl)-5-methylhexyl]-4-[2-{N-isopropyl-N-(2-pyridyl)amino]ethyl}Piperazine]
suppression rate of licking time ([3]; 10 mg/kg intravenously, formalin 5 minutes after administration): 59%

ω-agatoxin IVA
protection of neural cells in rat local cerebral ischemia model [4]: exhibited a protective action for neural cell

CC(C)C(C#N)(CCCN1CCN(CCOc2cccc(C#N)c2)CC1)c1cccs1 (centres unmarked) [Example 75]
volume of the infarction nidus of cerebral cortex ([5]; 1.5 mg/kg/h intravenous): 119.9±12.6 mm^3
reduction of the volume of the infarction nidus of cerebral cortex ([5]; 1.5 mg/kg/h intravenous): 26%
volume of the infarction nidus of cerebral cortex ([5]; 5 mg/kg/h intravenous): 102.0±14.1 mm^3
reduction of the volume of the infarction nidus of cerebral cortex ([5]; 5 mg/kg/h intravenous): 37%
volume of the infarction nidus of cerebral cortex ([5]; 15 mg/kg/h intravenous): 83.7±21.3 mm^3
reduction of the volume of the infarction nidus of cerebral cortex ([5]; 15 mg/kg/h intravenous): 49%

CSCC[C@@H]1NC(=O)[C@H](CC(C)C)NC(=O)[C@H](CCCNC(=N)N)NC(=O)[C@H](CO)NC(=O)[C@@H]2CSSC[C@@H]3NC(=O)[C@H](CO)NC(=O)CNC(=O)[C@H]([C@@H](C)O)NC(=O)[C@H](CSSC[C@H](N)C(=O)N[C@@H](CCCCN)C(=O)NCC(=O)N[C@@H](CCCCN)C(=O)NCC(=O)N[C@@H](C)C(=O)N[C@@H](CCCCN)C(=O)N2)NC(=O)[C@H](CSSC[C@@H](C(N)=O)NC(=O)[C@H](CCCCN)NC(=O)CNC(=O)[C@H](CO)NC(=O)[C@H](CCCNC(=N)N)NC3=O)NC(=O)[C@H](CC(=O)O)NC(=O)[C@H](Cc2ccc(O)cc2)NC1=O [SNX-111]
analgesic action in the formalin test (formalin test): exhibits an analgesic action
protection of neural cells in rat local cerebral ischemia model [4]: protected the liberation of glutamic acid from cerebral cortex and subsequent neural cell affection

CC(C)C(C#N)(CCCN1CCN(CCOc2cccc(C#N)c2)CC1)c1ccc(C#N)s1 (centres unmarked) [Example 70]
volume of the infarction nidus of cerebral cortex ([5]; 1.5 mg/kg/h intravenous): 128.9±12.5 mm^3
reduction of the volume of the infarction nidus of cerebral cortex ([5]; 1.5 mg/kg/h intravenous): 4%
volume of the infarction nidus of cerebral cortex ([5]; 5 mg/kg/h intravenous): 108.0±14.9 mm^3
reduction of the volume of the infarction nidus of cerebral cortex ([5]; 5 mg/kg/h intravenous): 20%
volume of the infarction nidus of cerebral cortex ([5]; 15 mg/kg/h intravenous): 75.7±11.2 mm^3
reduction of the volume of the infarction nidus of cerebral cortex ([5]; 15 mg/kg/h intravenous): 44%
